Results from ChEMBL document CHEMBL1201862, “PubChem BioAssay data set” (2004).
Activity calls are given as the source filed them.

Columns and labels:
[1] = target: T1, Mannose-6-phosphate isomerase (Homo sapiens, UniProt P34949); experiment: inhibitors of human PMI, primary screen, biochemical, fluorescence intensity, coupled assay (AID 1209)
T1 sequence (P34949 whole entry): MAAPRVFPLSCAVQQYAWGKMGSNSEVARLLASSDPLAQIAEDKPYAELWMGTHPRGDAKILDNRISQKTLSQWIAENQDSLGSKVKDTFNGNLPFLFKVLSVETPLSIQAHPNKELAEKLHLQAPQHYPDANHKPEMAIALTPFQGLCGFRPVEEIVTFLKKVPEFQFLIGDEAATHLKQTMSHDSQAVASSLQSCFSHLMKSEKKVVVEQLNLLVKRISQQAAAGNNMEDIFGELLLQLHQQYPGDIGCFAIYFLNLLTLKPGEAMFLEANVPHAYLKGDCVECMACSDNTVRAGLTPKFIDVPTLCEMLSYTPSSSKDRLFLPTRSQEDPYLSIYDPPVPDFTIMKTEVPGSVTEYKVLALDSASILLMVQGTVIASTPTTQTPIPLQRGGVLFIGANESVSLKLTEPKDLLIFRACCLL

[2] = P. falciparum Dd2 growth inhibitors, dose response, SYBR Green, cherry-picked samples (AID 1159567); type: functional, cell-based
[3] = HepG2 cell cytotoxicity, dose response, cytotoxicity control, cherry-picked samples (AID 1159577); type: functional, cell-based
[4] = A Cell Based Secondary Assay To Explore Cytotoxicity of Compounds that Sensitize Mycobacterium Tuberculosis to Beta-Lactam Antibiotics.; type: functional
[5] = Artemis endonuclease inhibitor potency, dose response, biochemical, fluorescence intensity (AID 720701); type: functional;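 also: Artemis endonuclease enzyme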
H4 = experiment: Luminescence Cell-Based Dose Response HTS to Identify Activators of 5'UTR Stem-Loop Driven Prion Protein mRNA Translation in H4 Neuroglioblastoma Cells. [Related pubchem assays: 1829 (Project Summary), 1814 (Primary HTS)]; type: functional; conditions: Homo sapiens
[6] = cytotoxicity in KRAS-transformed pancreatic duct cells, primary screen, cell-based, fluorescence, HTS (AID 431); type: functional; conditions: Homo sapiens;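 also: cell line used: HPDE-C7K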
[7] = Luminescence Cell-Based Dose Response HTS to Identify Activators of Luciferase Translation or Activity in H4 […] Cells. [Related pubchem assays: 1829 (Project Summary), 1814 (Primary HTS)]; type: functional
[8] = cytotoxicity in HPDE-C7 cells, cell-based, fluorescence, HTS (AID 430); type: functional; conditions: Homo sapiens
[9] = Luminescence Cell-Based Dose Confirmation HTS to Identify Activators of 5'UTR Stem-Loop Driven Alpha-Synuclein mRNA Translation in H4 Neuroglioblastoma Cells. [Related pubchem assays: 1829 (Project Summary), 1814 (Primary HTS)]; type: functional
[10] = inhibitors of PGC1a acetylation in cells, dose response, cell-based, cherry-picked samples (AID 720514); type: functional;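 also: potency may reflect raised or lowered acetylation signal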
[11] = HepG2 cell cytotoxicity, dose response, cytotoxicity control, plate reader, dry powder samples (AID 1159569); type: functional, cell-based;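 also: inhibitor potency with signal falling toward the positive control level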
[12] = P. falciparum Dd2 growth inhibitors, dose response, SYBR Green, dry powder samples (AID 1159566); type: functional, cell-based;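 also: potency for growth inhibition with lower SYBR green DNA signal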
[13] = P. falciparum 3D7-ScDHODH growth inhibitors, dose response, SYBR Green, dry powder samples (AID 1159570); type: functional, cell-based;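 also: parasite growth measured after 72 hours of compound exposure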
[14] = P. falciparum ATP4 D1247Y mutant growth inhibitors, dose response, NITD609-resistant line, SYBR Green, dry powder (AID 1159571); type: functional, cell-based;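 also: parasites synchronized at ring stage by sorbitol before testing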
Cytochrome P450 2C9 = Cytochrome P450 2C9 (Homo sapiens, UniProt P11712)
Cytochrome P450 3A4 = Cytochrome P450 3A4 (Homo sapiens, UniProt P08684);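 also: CYP3A4 tested as one member of a cytochrome P450 panel screen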
Cytochrome P450 2C19 = Cytochrome P450 2C19 (Homo sapiens, UniProt P33261); experiment: Cytochrome panel assay with activity outcomes. Panel member name: p450-cyp2c19 Compounds with AC50 equal or less than 10 uM are considered active; type: functional; conditions: read-out: AC50
fMet-Leu-Phe receptor = target: T2, fMet-Leu-Phe receptor (Homo sapiens, UniProt P21462); experiment: FPR ligands, dose response (AID 519); type: functional
T2 sequence (P21462 whole entry): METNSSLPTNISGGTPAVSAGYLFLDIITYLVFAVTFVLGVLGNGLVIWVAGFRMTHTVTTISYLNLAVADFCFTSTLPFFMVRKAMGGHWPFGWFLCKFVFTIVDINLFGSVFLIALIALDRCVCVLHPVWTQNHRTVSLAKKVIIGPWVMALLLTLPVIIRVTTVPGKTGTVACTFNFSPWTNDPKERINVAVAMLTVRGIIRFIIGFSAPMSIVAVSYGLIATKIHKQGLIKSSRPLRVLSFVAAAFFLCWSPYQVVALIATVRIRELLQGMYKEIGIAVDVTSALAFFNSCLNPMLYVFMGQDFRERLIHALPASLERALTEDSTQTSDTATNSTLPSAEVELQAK

[15] = target: T3, Oxysterols receptor LXR-beta (Homo sapiens, UniProt P55055); experiment: LXR agonists, Gal4 luciferase reporter, dose response, counter-screen for ssDAF-12 agonist project, cell-based, luminescence, HEK293, S. stercoralis campaign (AID 720737); type: functional; conditions: read-out: IC50 (the source's name)
T3 sequence (P55055 whole entry): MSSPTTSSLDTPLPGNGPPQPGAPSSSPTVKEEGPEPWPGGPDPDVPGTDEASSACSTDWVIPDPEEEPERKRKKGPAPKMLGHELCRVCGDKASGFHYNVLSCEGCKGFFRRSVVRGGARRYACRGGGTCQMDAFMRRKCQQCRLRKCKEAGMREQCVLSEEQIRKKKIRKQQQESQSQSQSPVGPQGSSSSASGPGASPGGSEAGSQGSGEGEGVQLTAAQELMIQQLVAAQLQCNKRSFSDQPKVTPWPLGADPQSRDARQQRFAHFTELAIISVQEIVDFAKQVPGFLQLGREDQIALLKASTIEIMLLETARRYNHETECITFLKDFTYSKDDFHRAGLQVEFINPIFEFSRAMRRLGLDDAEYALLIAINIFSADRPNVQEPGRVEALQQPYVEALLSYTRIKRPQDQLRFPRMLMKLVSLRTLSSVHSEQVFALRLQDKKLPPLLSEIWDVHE

[16] = Luminescence-based cell-based high throughput dose response assay to identify activators of the DAF-12 from the parasite S. stercoralis (ssDAF-12).; type: functional

Sequence of Cytochrome P450 3A4 (P08684 whole entry): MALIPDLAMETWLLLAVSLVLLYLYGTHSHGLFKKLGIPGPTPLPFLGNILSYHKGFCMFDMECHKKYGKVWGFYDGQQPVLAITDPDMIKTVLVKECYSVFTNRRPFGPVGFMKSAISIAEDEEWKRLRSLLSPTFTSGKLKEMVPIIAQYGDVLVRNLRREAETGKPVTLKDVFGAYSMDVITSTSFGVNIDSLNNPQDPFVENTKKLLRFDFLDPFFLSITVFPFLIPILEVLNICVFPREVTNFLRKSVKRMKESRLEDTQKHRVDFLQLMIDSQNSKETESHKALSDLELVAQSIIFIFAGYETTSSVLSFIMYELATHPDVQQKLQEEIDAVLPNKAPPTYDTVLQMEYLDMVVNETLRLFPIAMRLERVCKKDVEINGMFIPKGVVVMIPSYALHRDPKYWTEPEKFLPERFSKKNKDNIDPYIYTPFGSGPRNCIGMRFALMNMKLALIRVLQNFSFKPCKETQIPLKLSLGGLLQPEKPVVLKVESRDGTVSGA
Sequence of Cytochrome P450 2C19 (P33261 whole entry): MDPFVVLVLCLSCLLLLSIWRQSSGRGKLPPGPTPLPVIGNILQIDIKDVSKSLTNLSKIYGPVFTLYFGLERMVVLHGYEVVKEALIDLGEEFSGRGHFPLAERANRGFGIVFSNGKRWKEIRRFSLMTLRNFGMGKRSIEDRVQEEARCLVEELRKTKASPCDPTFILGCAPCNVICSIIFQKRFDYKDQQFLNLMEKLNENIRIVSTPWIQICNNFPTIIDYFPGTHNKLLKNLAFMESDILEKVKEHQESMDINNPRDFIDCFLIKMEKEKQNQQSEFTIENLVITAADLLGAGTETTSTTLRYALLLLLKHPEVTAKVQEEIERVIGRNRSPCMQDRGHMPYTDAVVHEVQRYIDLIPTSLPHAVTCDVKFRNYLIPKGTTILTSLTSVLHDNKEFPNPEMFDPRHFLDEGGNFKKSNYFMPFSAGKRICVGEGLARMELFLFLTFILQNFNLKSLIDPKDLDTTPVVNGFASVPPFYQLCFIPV
Sequence of Cytochrome P450 2C9 (P11712 whole entry): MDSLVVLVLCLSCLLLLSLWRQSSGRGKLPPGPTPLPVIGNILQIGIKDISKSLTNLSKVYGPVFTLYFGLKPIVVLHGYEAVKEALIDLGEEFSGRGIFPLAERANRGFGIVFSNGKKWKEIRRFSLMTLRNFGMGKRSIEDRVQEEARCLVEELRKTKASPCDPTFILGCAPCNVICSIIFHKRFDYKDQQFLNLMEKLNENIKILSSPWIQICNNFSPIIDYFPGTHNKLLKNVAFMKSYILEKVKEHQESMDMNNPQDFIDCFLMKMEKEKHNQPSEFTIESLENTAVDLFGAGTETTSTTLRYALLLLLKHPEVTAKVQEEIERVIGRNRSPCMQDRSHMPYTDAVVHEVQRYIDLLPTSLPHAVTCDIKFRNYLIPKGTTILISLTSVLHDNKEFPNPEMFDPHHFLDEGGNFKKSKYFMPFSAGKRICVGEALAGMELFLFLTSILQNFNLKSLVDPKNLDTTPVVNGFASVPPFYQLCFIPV

Cc1c(NC(=O)CSc2ccccc2F)c(=O)n(-c2ccccc2)n1C
IC50 [1]: > 50 µM (not active)

C[C@H]1CN([C@@H](C)CO)C(=O)c2c(c3ccccc3n2C)-c2ccccc2CO[C@@H]1CN(C)Cc1cccc2c1OCCCO2
AC50 [2]: 4.74 µM (active) | AC50 [3]: 29.8 µM (active)

OC[C@@H]1[C@H](c2ccc(C3=CCCC3)cc2)[C@H]2CN(CCC(F)(F)F)CCCCN12
AC50 [2]: 1.2 µM (active) | AC50 [3]: 18.7 µM (active)

c1ccc(-c2ccc(C3=Nn4c(Cn5nnc6ccccc65)nnc4SC3)cc2)cc1
CC50 [4]: > 40 µM (active) | IC50 [5]: > 20 µM (inactive)

CC1(C)Cc2c(c(N3CCOCC3)nc3snc(N)c23)CO1
EC50 (H4): > 120 µM (not active) | EC50 [6]: 7.17 µM (active) | EC50 [7]: > 120 µM (not active) | EC50 [8]: 7.52 µM (active) | EC50 [9]: 40.9 µM (active)

Cc1cccc(S(=O)(=O)N(C)C[C@@H]2OCc3cn(nn3)CCCC(=O)N([C@@H](C)CO)C[C@H]2C)c1
AC50 [10]: 34.4 µM (active)

COc1ccccc1CN1C[C@@H]2N[C@H](C1)[C@@H]2c1ccc(-c2cccnc2)cc1
AC50 [2]: 2.1 µM (active) | AC50 [11]: 29.6 µM (active) | AC50 [12]: 1.35 µM (active) | AC50 [3]: 28.5 µM (active) | AC50 [13]: 3.2 µM (active) | AC50 [14]: 1.78 µM (active)

CCOc1ccccc1Oc1c(C)oc2cc(OC(=O)c3ccco3)ccc2c1=O
AC50 (Cytochrome P450 2C9): inconclusive | AC50 (Cytochrome P450 3A4): 20 µM (inconclusive) | AC50 (Cytochrome P450 2C19): 3.16 µM (inconclusive) | Ki (fMet-Leu-Phe receptor): 20.5 µM (inactive)

COc1ccc(C#Cc2ccc3c(c2)[C@H]2[C@H](CCN2Cc2ccncc2)[C@@H](CO)N3)cc1
AC50 [2]: 2.38 µM (active) | AC50 [11]: 62.5 µM (active) | AC50 [12]: 1.16 µM (active) | AC50 [13]: 1.95 µM (active) | AC50 [14]: 1.67 µM (active)

CCNC1=NN=C(c2c[nH]c3ccccc23)CS1
EC50 [15]: > 67.6 µM (inactive) | IC50 [16]: > 67.6 µM (inactive)
